Assay results from patent US8080377B2, “Method for confirming the exposure on chrysene” (Korea Institute of Science and Technology, priority 2008, dated 2011).

Tested on: HepG2 cells
Assay: 44 k whole human genome oligo microarray gene expression, cells treated with chrysene at IC20 for 48 hours (Cy5) vs untreated control (Cy3)
Format: cell-based
Experimental: HepG2 cells were distributed on a 100 mm dish at the concentration of 6×10^6 cell/ml, to which chrysene was treated for 48 hours at the concentration that was determined in Example <1-2>. Total RNA was extracted from the cells using trizol reagent (Invitrogen life technologies, USA) according to the manufacturer's instruction and the extracted RNA was purified by using RNeasy mini kit (Qiagen, USA). The genomic DNA was eliminated during the purification of RNA using RNase-free DNase set (Qiagen, USA). The total RNA was quantified by spectrophotometer and purity was measured by Agilent 2100 Bioanalyzer (Agilent Technologies, USA) and agarose gel-electrophoration.
For oligo-microarray analysis, cDNA was synthesized using the total RNA extracted from the experimental group treated with chrysene obtained in Example <2-1>. 30 μg of the total RNA and 2 μg (1 μg/μl) of oligo (dT) primer were mixed, followed by reaction for 10 minutes at 65° C. Then, the reaction mixture was put in ice, followed by annealing. Reagents were mixed as shown in Table 1 for reverse transcription of the RNA.
The total RNA extracted from the control HepG2 cell line was labeled with Cy3-dUTP (green), while the RNA extracted from the experimental HepG2 cell line treated with chrysene was labeled with Cy5-dUTP (red). At this time, the two samples were mixed and purified by Microcon YM-30 column (Millipore, USA).
Hybridization and washing were performed according to the instruction of GeneoCheck Co., Ltd. Hybridization was performed in a 62° C. oven for 12 hours. At this time, 44 k whole human genome oligo microarray (Agilent, USA) was used as a DNA microarray chip. After washing (with 2×SSC/0.1% SDS for 2 minutes, with 1×SSC for 3 minutes, with 0.2×SSC for 2 minutes), the slide was centrifuged at 800 rpm for 3 minutes and dried.
Scanning of the hybridized images on the slide was performed by using Genepix 4000B (Axon Instruments, USA). Fluorescence images of the chip washed to eliminate non-binding genes were obtained by laser fluorescence scanner. At this time, green fluorescent images indicated the activity of the gene expressed in the control, whereas red fluorescent images indicated the activity of the gene expressed specifically in the experimental group. […] The scanned images were analyzed by GenePix 4.1 software (Axon Instruments, USA) to calculate the gene expression rate. Based on the obtained data, marker genes for chrysene were selected (see FIG. 2).

c1ccc2c(c1)ccc1c3ccccc3ccc21 [chrysene]
Ratio of intermediate value (ACHE (NM_015831)): 6.223
Ratio of intermediate value (ADA (NM_000022)): 5.213
Ratio of intermediate value (ADM (NM_001124)): 2.186
Ratio of intermediate value (ADORA2B (AK172851)): 2.249
Ratio of intermediate value (APOL2 (AF324224)): 2.105
Ratio of intermediate value (APOL3 (NM_145641)): 3.196
Ratio of intermediate value (AXL (NM_021913)): 3.268
Ratio of intermediate value (B2M (NM_004048)): 2.006
Ratio of intermediate value (BATF (BQ053419)): 2.221
Ratio of intermediate value (BTG3 (BC011957)): 2.74
Ratio of intermediate value (C1R (NM_001733)): 2.893
Ratio of intermediate value (C1S (NM_001734)): 3.018
Ratio of intermediate value (C4A (NM_001002029)): 2.002
Ratio of intermediate value (C20orf139 (H18681)): 4.383
Ratio of intermediate value (CCL3 (CR591007)): 3.347
Ratio of intermediate value (CCL3L1 (BF662985)): 2.839
Ratio of intermediate value (CCL14 (NM_004167)): 5.103
Ratio of intermediate value (CCL20 (BC020698)): 2.199
Ratio of intermediate value (CCL23 (NM_005064)): 2.761
Ratio of intermediate value (CCND3 (AK096276)): 2.292
Ratio of intermediate value (CD3D (NM_000732)): 54.94
Ratio of intermediate value (CD9 (NM_001769)): 4.153
Ratio of intermediate value (CD58 (NM_001779)): 2.794
Ratio of intermediate value (CD79B (AK223210)): 15.33
Ratio of intermediate value (CDKN2B (NM_078487)): 2.559
Ratio of intermediate value (CSF1 (BC021117)): 4.788
Ratio of intermediate value (CXCL12 (AK090482)): 2.842
Ratio of intermediate value (DDX58 (NM_014314)): 2.333
Ratio of intermediate value (DKFZp451C2311 (AL832451)): 2.639
Ratio of intermediate value (DNAJA2 (AF116720)): 10.94
Ratio of intermediate value (DNAJB2 (BC040494)): 2.053
Ratio of intermediate value (DNAJB4 (AB209922)): 2.872
Ratio of intermediate value (DUSP1 (AK127679)): 2.383
Ratio of intermediate value (DUSP13 (NM_001007271)): 7.031
Ratio of intermediate value (E2F7 (NM_203394)): 3.647
Ratio of intermediate value (EBI3 (NM_005755)): 5.607
Ratio of intermediate value (ELF4 (NM_001421)): 4.316
Ratio of intermediate value (F2RL1 (NM_005242)): 2.258
Ratio of intermediate value (F8 (NM_000132)): 2.415
Ratio of intermediate value (FAM14A (NM_032036)): 2.706
Ratio of intermediate value (FOS (BX647104)): 2.287
Ratio of intermediate value (FOSL1 (NM_005438)): 5.643
Ratio of intermediate value (GPX1 (NM_201397)): 2.85
Ratio of intermediate value (GPX2 (BE512691)): 2.014
Ratio of intermediate value (HLA-DOA (NM_002119)): 4.209
Ratio of intermediate value (HRAS (NM_005343)): 2.3
Ratio of intermediate value (HSPA4L (NM_014278)): 4.71
Ratio of intermediate value (HSPA8 (NM_006597)): 2.313
Ratio of intermediate value (HSPCA (AJ890082)): 2.544
Ratio of intermediate value (ICOSLG (CB055213)): 3.644
Ratio of intermediate value (IL4R (NM_000418)): 2.254
Ratio of intermediate value (IL11 (NM_000641)): 4.521
Ratio of intermediate value (ITCH (NM_031483)): 2.301
Ratio of intermediate value (KLF6 (NM_001008490)): 2.3
Ratio of intermediate value (KLRC3 (NM_002260)): 2.942
Ratio of intermediate value (LIF (NM_002309)): 8.088
Ratio of intermediate value (LY96 (BM918324)): 5.439
Ratio of intermediate value (MAPK11 (BC027933)): 2.256
Ratio of intermediate value (MAPK13 (AB209586)): 2.326
Ratio of intermediate value (MBL2 (NM_000242)): 2.755
Ratio of intermediate value (MGC3207 (AL834276)): 2.364
Ratio of intermediate value (MR1 (AF031469)): 7.059
Ratio of intermediate value (NALP6 (AY154461)): 2.392
Ratio of intermediate value (NFKBIA (NM_020529)): 2.242
Ratio of intermediate value (NINJ1 (NM_004148)): 2.107
Ratio of intermediate value (NK4 (BF569086)): 3.138
Ratio of intermediate value (NR3C1 (U25029)): 2.274
Ratio of intermediate value (OAS1 (NM_016816)): 3.711
Ratio of intermediate value (PAI, PAI1, PAI-1, PLANH1 (BX649164)): 29.05
Ratio of intermediate value (PARD6B (BC060847)): 2.507
Ratio of intermediate value (PARD6G (BC060797)): 3.502
Ratio of intermediate value (PGF (NM_002632)): 2.436
Ratio of intermediate value (PPM1D (NM_003620)): 3.647
Ratio of intermediate value (PPP1R9B (BC008564)): 3.169
Ratio of intermediate value (PRNP (NM_000311)): 2.313
Ratio of intermediate value (PROCR (NM_006404)): 24.53
Ratio of intermediate value (PTGES (AK127663)): 3.184
Ratio of intermediate value (PTP4A1 (BC040303)): 3.183
Ratio of intermediate value (RAE1 (AK097024)): 2.921
Ratio of intermediate value (RPS6KA1 (BC014966)): 2.11
Ratio of intermediate value (S100A6 (BM904612)): 5.938
Ratio of intermediate value (SAA4 (BG564326)): 4.076
Ratio of intermediate value (SASH1 (NM_015278)): 2.368
Ratio of intermediate value (SEMA7A (AF069493)): 2.531
Ratio of intermediate value (SERTAD1 (AK074652)): 4.835
Ratio of intermediate value (SFN (BC023552)): 2.525
Ratio of intermediate value (SGK2 (BC006523)): 4.65
Ratio of intermediate value (STAT1 (NM_007315)): 2.268
Ratio of intermediate value (TAP1 (BX648013)): 4.08
Ratio of intermediate value (TAPBP (NM_172208)): 7.02
Ratio of intermediate value (TGFA (NM_003236)): 2.487
Ratio of intermediate value (TLR3 (BC068487)): 2.541
Ratio of intermediate value (TMPRSS6 (NM_153609)): 2.118
Ratio of intermediate value (TP53I11 (BC045666)): 6.008
Ratio of intermediate value (TREM2 (NM_018965)): 43.67
Ratio of intermediate value (TRIM22 (BC035582)): 13.79
Ratio of intermediate value (VWF (NM_000552)): 2.476
Ratio of intermediate value (XLKD1 (NM_006691)): 10.06
Ratio of intermediate value (ZAP70 (AL832287)): 3.83
Ratio of intermediate value (ZCSL2 (AK092040)): 2.303
genes identified to be down-regulated (2.0 fold less) (out of 44,000 genes): 0.82%
genes identified to be up-regulated (2.0 fold higher) (out of 44,000 genes): 0.73%
number of genes identified to be down-regulated (out of 44,000 genes): 361 genes
number of genes identified to be up-regulated (out of 44,000 genes): 323 genes
